Experimental data taken from patent US20100297056A1, “COMPOSITION BASED ON PERHYDROSQUALENE AND COLLAGEN-POLYVINYLPYRROLIDONE FOR FILLING MINOR CUTANEOUS DEPRESSIONS” (ASPID, S.A. DE C.V., priority 2007, published 2010).

What was measured:
rat skin = experiment: murine model of intradermal administration of implant materials; type: in vivo, rats; conditions: sensorial analog scale, papule palpation
Method: Because of the above, a murine model essay of intradermal administration was designed, wherein several implant materials were evaluated such as natural and synthetic jojoba oil, peanut oil and perhydrosqualene, mixed with collagen-polyvinylpyrrolidone, various emulsifiers and a gelling agent (dibutyl-lauroyl glutamide). The administration of the implant materials generated papules, formed by the deposition of the material in the reticular dermis of the back of the rats. The papules were evaluated with regard to the tolerance of the tissue to the implant through a visual analog scale during a period of about 30 days, with their intervals; moreover, the eventual occurrence of skin changes such as irritation, ischemia formation and in some cases tissue necrosis related to the implanted material were reported, as well as the durability of the bioimplant that was quantified through a sensorial analog scale derived from the papule palpation.
In the same way, histological rat skin changes were evaluated through biopsies obtained from the implant infiltrated site, said biopsies were collected at different times in order to determine whether changes occurred in the internal skin structure, as well as to observe the implant site, the inflammatory infiltrate, the ratio between type I and type III collagens, as well as the possible formation of granulomes.

[1] = in vivo; cited from earlier work
[2] = humans; cited from earlier work
[3] = mice; cited from earlier work
[4] = excreted through natural routes; cited from earlier work
[5] = rats, oral, three-month period; cited from earlier work
[6] = dogs, cited from earlier work

**Q.** For CC(C)CCCC(C)CCCC(C)CCCCC(C)CCCC(C)CCCC(C)C (stereo not drawn) [perhydrosqualene, 2,6,10,15,19,23-hexamethyltetracosane], which “durability of the bioimplant in the tissue” value (rat skin) is on record?
**A.** The value was “constant even 15 days after its administration”.

**Q.** What about the “mean lethal dose DL50” value [1] of the same compound?
**A.** The value was > 20 mL/kg.

**Q.** And the “cutaneous and ocular irritation” value [2]?
**A.** Its value is “absence of cutaneous and ocular irritation”.

**Q.** And the “irritation after subcutaneous injections” value [3]?
**A.** Its value is “absence of cutaneous and ocular irritation”.

**Q.** What about the metabolism [4] of the same compound?
**A.** The metabolism was “non-metabolizable”.

**Q.** And the signs of toxicity [5]?
**A.** Its signs of toxicity is “did not show signs of toxicity”.

**Q.** And the blood level ([6]; 1200 mg/kg during 14 days)?
**A.** Its blood level is 30 ppm.

**Q.** And the perhydrosqualene excretion ([6]; 1200 mg/kg during 14 days)?
**A.** Its perhydrosqualene excretion is 65-90 % per day.

**Q.** And the “perhydrosqualene in blood on day 56” value ([6]; day 56 after the first dose)?
**A.** The value was “not detectable”.
